Measured values from ChEMBL document CHEMBL3507680, “University of Dundee, Gates Library screen for HepG2 cell viability”.

Assay: Human HepG2 cell viability assay in 384 well format
Type: toxicity, cell-based
Set-up: dose 125 nL, time 70.5 hour; cytotoxicity at 70.5 h: concentration not given beside the values
Conditions: HepG2 cells, read-out: Inhibition

| SMILES | cytotoxicity at 70.5 h |
| --- | --- |
| CNc1ncc(CN(C)C(=O)c2c[nH]nc2-c2cccc(F)c2)cn1 | -6.7% |
| Cc1nn(C)c2nc(NCCOCCO)sc12 | -4.46% |
| Cc1cc(CNc2nccc(N)n2)c2[nH]c(C)c(C)c2c1 | 1.64% |
| CCc1nc(C2CCCN2Cc2nnc(C3CC3)o2)no1 (stereo unspecified) | -3.82% |
| O=C(Nc1cnccn1)[C@@H]1CC[C@@H]2[C@@H](CCN2Cc2nccs2)O1 | -4.62% |
| COCCCn1nnc(C2(NC(=O)c3ccccc3)CCCC2)n1 | -12.2% |
| Cc1cc(C)c2nc(CN3CCC(N4CCOCC4)CC3)cc(O)c2c1 | -0.693% |
| CCc1cccc(N2CCC(NC(=O)C3CCOCC3)CC2)c1 | -5.26% |
| O=C(NC1CC1)[C@@H]1C[C@@H]2CCN(Cc3ccoc3)C[C@@H]2O1 | -8.25% |
| COc1cccc2cc(CNC(=O)N3CCC(C(N)=O)CC3)oc12 | -8.48% |
| CCc1nc(CN(C)C(=O)NC(C)c2cccc(NC(C)=O)c2)cs1 (stereo unspecified) | 12.9% |
| CCC[C@H]1CN(CCS(C)(=O)=O)C[C@@H]1NC(=O)c1ccccn1 | -5.77% |
| COCCN1CCC2(CCCN(Cc3ccoc3)C2)C1=O (stereo unspecified) | 12.2% |
| CCCc1nnnn1CC(=O)NCc1cccc(C)c1 | -3.35% |
| Cc1ccn(-c2ccc(N3CCCN(Cc4ccccc4)CC3)nn2)n1 | 2.19% |
| CCCSc1nc(N)c(NC(=O)c2ccc(OC)c(OC)c2)c(=O)[nH]1 | 12% |
| CN(C)Cc1nnc2n1CCCN(C(=O)c1c[nH]cn1)C2 | -0.569% |
| O=C(Nc1cccc(N2CCN(CC3CC3)CC2)c1)C1CCCO1 (stereo unspecified) | 17% |
| Nc1nccnc1C(=O)NC1CCN(Cc2ccccc2)C1 (stereo unspecified) | -10.2% |

| SMILES | cytotoxicity at 70.5 h |
| --- | --- |
| CC(C)c1nsc(N2CCC(OCCN3CCOCC3)CC2)n1 | -22.2% |
| COCC(O)CNC(=O)c1coc(COc2cccc(F)c2)n1 (stereo unspecified) | -4.43% |
| Cc1cc(CN2CCN(Cc3cc(C#N)ccc3F)CC2)no1 | 0.144% |
| COc1ccc(-c2nnc(CNCCn3cccn3)o2)cc1 | -9.2% |
| Cc1cc2n(n1)CC(CNCc1ccnc(-n3ccnc3C)c1)CN2 (stereo unspecified) | 0.264% |
| Cc1ccc2c(cnn2CCC(=O)NCc2csc(C3CC3)n2)c1 | 22.8% |
| c1ccc(-n2cc(CNC3CCc4ncnn4C3)cn2)cc1 (stereo unspecified) | -4.52% |
| CCc1ccc(CN2CCN(Cc3ncc[nH]3)[C@H]3CS(=O)(=O)C[C@H]32)nc1 | -6.57% |
| Cc1nc(CN2CCCC(NCCCOc3ccc(F)cc3)C2)no1 (stereo unspecified) | -8.43% |
| N#Cc1ccc(CNCCS(=O)(=O)N2CCc3ccccc32)cc1 | -10.2% |
| CN1CC(NC(=O)CCOc2cccc(Cl)c2)CC1=O (stereo unspecified) | 17.2% |
| Cc1cc(C)c2nc(CNC3CCNC3=O)cc(O)c2c1 (stereo unspecified) | -3.2% |
| CCN1CC[C@@]2(C(=O)N(C)C)CCN(S(=O)(=O)c3ccccc3)CC[C@@H]12 | -9.93% |
| COc1ccccc1N1CCN(C(=O)Cn2nc(C)c(C)c2C)C(C)C1 (stereo unspecified) | -3.01% |
| Cc1ccc(CCNC(=O)NCc2cccc(OC(F)F)c2)cn1 | -8.89% |
| O=C(c1ncoc1C1CCCO1)N1CCCC2(CCCCC2)C1 (stereo unspecified) | -2.37% |
| COc1c(C)cnc(CN2CCC(N(C)C(=O)C3CC3)CC2)c1C | -10.5% |
| CCn1cnnc1CNC(=O)CCC(=O)c1ccc2c(c1)OCCO2 | -9.39% |
| CN1CC(c2ccccc2)CC2(CCN(CC(=O)N(C)C)CC2)C1 (stereo unspecified) | -8.78% |

| SMILES | cytotoxicity at 70.5 h |
| --- | --- |
| O=C1C[C@@H]2CCN(Cc3ccccc3)C[C@@H]2CCN1c1ccccc1 | 6.43% |
| COCc1nc(C(=O)N2CCCC2c2cc(C)no2)cs1 (stereo unspecified) | -7.8% |
| CS(=O)(=O)NCc1cc2n(n1)CCCN(Cc1cccc(C#N)c1)C2 | -9.28% |
| CSCCCn1ccnc1-c1cccc(C#N)c1 | 8.22% |
| CN1CCC(c2n[nH]c(=O)n2CC2CCCCC2)CC1 | -8.59% |
| O=C(c1ccc(F)cc1)N1C[C@H]2CCC[C@@]2(COCc2ccccn2)C1 | -15.6% |
| O=C(NCc1ccco1)N1CCOC(c2ccccc2Cl)C1 (stereo unspecified) | -15.6% |
| COCCN1C(=O)CC[C@]12CC[C@@H](NCc1nccs1)CC2 | -6.2% |
| CC(C)(O)CCc1cccc(C(=O)N2CCC[C@H]2C(N)=O)c1 | 29.2% |
| O=C(NCCc1cccnc1)N1CCCC1c1ccsc1 (stereo unspecified) | -0.435% |
| O=C(Nc1cc(F)ccc1OCC1CCCO1)N1CCCC1 (stereo unspecified) | -17.1% |
| CCN1C(=O)CCCC12CCCN(C(=O)c1ccsc1)C2 (stereo unspecified) | 1.97% |
| CC(=O)NCCOc1c(C)cccc1C | -4.39% |
| CC(c1nncn1C)n1cc(-c2cc(CN3CCCC3)cs2)nn1 (stereo unspecified) | 15.8% |
| CCc1noc(C2CCCCN2C(=O)c2ccccc2)n1 (stereo unspecified) | -1.29% |
| CN(C)CCN1CCN(Cc2cccc(C#N)c2)Cc2cccnc21 | -2.4% |
| COc1ccccc1OCC(=O)NCc1ncc(C)c(OC)c1C | 11.5% |
| CC(C)c1cc(C(=O)N2C[C@H]3CC[C@@H]2CN(Cc2ccccn2)C3)no1 | -7.13% |
